Patent US6610657B1, “Alkyl peptide amides and applications” (Promega Corporation, priority 1996, dated 2003)
*: point of attachment. Stearyl = stearyl group; stearyl = stearyl group; sulfo = O=S(=O)(O)*

Tests used:
[1] = tested on: RII binding to AKAP 110; assay: RII overlay assay on bovine sperm AKAP; details: 20 μM peptide, densitometric scanning, FIG. 6
Excerpt: Western blotting and overlay assays. The overlay procedure is a modified Western blot procedure. Proteins were separated by SDS-polyacrylamide gel electrophoresis (SDS-PAGE) and transferred to a nylon membrane (Immobilon). After treatment with Blotto (Protein Methods, Bollag and Edelstein, eds., Wiley-Liss, New York, 1991) to prevent non-specific binding, radiolabelled RIIα or RIIβ probes were applied (Carr and Scott, Trends Biochem. Sci. 17:246-249, 1992). Recombinant RIIα was produced as previously described (Carr et al., J. Biol. Chem. 266:14188-14192, 1991; Carr et al., J. Biol. Chem. 267:13376-13382, 1992). RIIα and RIIβ were gifts from Dr. John Scott, Oregon Health Sciences University, Portland, Oreg. Two different variations of the overlay assay were used. In the first variation, recombinant RII radiolabeled by incubation with the catalytic subunit of PKA and γ^32P-ATP was used. After separation from free γ^32P-ATP, the ^32P-labeled RII (500,000 CPM/10 ml blotto) was incubated with the blocked blot for four hours followed by washing and autoradiography. […]
RII overlays were performed in the absence (lane 1) or presence of 20 μM Ht31, s-Ht31, or s-Ht31-P (lanes 2, 3 or 4, respectively). Addition of the three peptide species inhibited RII binding to AKAP110 by 100%, 85% and 0%, respectively, as determined by densitometric scanning analysis.

[2] = tested on: monkey ejaculated sperm; assay: Monkey sperm motility; format: cell-based, rhesus monkey; details: increasing concentrations in neat semen, 37° C., 5 and 30 min, FIG. 11
Experimental: (§1) Sperm Preparation. Testes from mature bulls with intact tunica were obtained from a local slaughterhouse and sperm from caput or caudal epididymis were isolated and washed as previously described (Vijayaraghavan et al., Biol. Reprod. 32:489-500, 1985). The sperm were resuspended in buffer A (120 mM NaCl, 10 mM KCl, 10 mM Tris[hydroxymethyl]aminomethane (TRIS), pH 7.4) supplemented with 10 mM glucose and 10 mg/ml bovine serum albumin (BSA) for motility measurements. Monkey semen was obtained by electro-ejaculation and processed by procedures previously reported (Smith et al., Biol. Reprod. 54:719-727, 1996). Human semen samples were obtained from a fertility clinic at the Oregon Health Sciences University.
Sperm Motility Measurement. Head motility parameters were determined as previously described (Vijayaraghavan et al., Biol. Reprod. 54:709-718, 1996; Stephens et al., Biol. Reprod. 38:577-586, 1988). A 3-4 μL aliquot of sperm suspension (5×10^7/ml) was loaded onto a counting chamber at 37° C. After bulk fluid movement had subsided, six different locations on the slide were recorded. The videotaped segments were analyzed by a computerized image-analysis system (CASMA) as previously described (Vijayaraghavan et al., Biol. Reprod. 54:709-718, 1996; Stephens et al., Biol. Reprod. 38:577-586, 1988). This computer system measured several parameters of head motion, including forward motility. […]

[3] = tested on: PKA in bovine caudal and caput sperm; assay: PKA activity of bovine caudal and caput sperm after treatment; format: cell-based; details: 50 μM
Experimental: PKA Activity. PKA activity was assayed as previously described (Carr et al., J. Biol. Chem. 268:20729-20732, 1993) with minor changes. Whole caput or caudal sperm were treated with 2-chloro-2′-deoxyadenosine (50 μM), H-89 (50 μM), or both for 30 min. at 37° C. The sperm were then washed twice in ice cold homogenization buffer supplemented with protease inhibitors, benzamidine (10 mM), leupeptin (4 μg/ml), and N-tosyl-L-phenylalanine chloromethyl ketone (TPCK) (100 μM), and sonicated for one min. Reaction mixtures (20 microliters (μl) total) contained 250 μM Kemptide (i.e., LRRASLG), 250 μM (γ^32P) ATP, 25 mM Na3VO4, 50 mM 3-[N-morpholino] propanesulfonic acid (MOPS) (pH=7.0), 10 mM MgCl2, 0.25 mg/ml BSA and where indicated, 10 μM cAMP. Assays were initiated by addition of labeled ATP, incubated for 2 min at 30° C., and stopped by addition of 30 μl of 1 N HCl. Twenty μl of the reaction was then spotted on phosphocellulose paper followed by three washes in 75 mM phosphoric acid. The papers were then analyzed by Cerenkov counting. All determinations were made in quadruplicate.
In previous reports, initiation or stimulation of sperm motility by CDA was associated with an elevation of cAMP and an increase in PKA activity was assumed (Vijayaraghavan and Hoskins, Biol. Reprod. 34:468-77, 1986). […] Bovine sperm were incubated as described for FIGS. 14 and 15 and then assessed for PKA activity. […]

[4] = tested on: sperm; format: cell-based
Experimental: In the first such experiment, the vital dyes SYBR-green and rhodamine 123 were added to sperm before and after treatment with s-Ht31 in order to determine whether s-Ht31 affects sperm viability or structural integrity. Only viable, intact cells normally take up such dyes.

[5] = tested on: bovine caudal epididymal sperm; assay: Bovine sperm motility (CASMA, forward motility index); format: cell-based
Experimental: as §1
Sperm Motility Measurement. Head motility parameters were determined as previously described (Vijayaraghavan et al., Biol. Reprod. 54:709-718, 1996; Stephens et al., Biol. Reprod. 38:577-586, 1988). A 3-4 μL aliquot of sperm suspension (5×10^7/ml) was loaded onto a counting chamber at 37° C. After bulk fluid movement had subsided, six different locations on the slide were recorded. The videotaped segments were analyzed by a computerized image-analysis system (CASMA) as previously described (Vijayaraghavan et al., Biol. Reprod. 54:709-718, 1996; Stephens et al., Biol. Reprod. 38:577-586, 1988). This computer system measured several parameters of head motion, including forward motility. The forward Motility Index (FMI) was used as the measure of motility. FMI is a product of percent motile (%M, percent of sperm moving at velocity greater than […]) and average velocity (Va, the five-point smoothed average of the head positions through analysis of at least twenty frames).

[6] = tested on: alkaline phosphatase; details: cited from earlier work
[7] = tested on: insulin receptor; details: intact CHO/HIRc cells; cited from earlier work
[8] = target: PP-1 (Homo sapiens, UniProt P62136); details: cited from earlier work
[9] = target: PP-2A (Homo sapiens, UniProt P67775); details: cited from earlier work
[10] = target: RII, 32P-labeled recombinant regulatory subunit of PKA (isoform not given) used as overlay probe; assay: RII overlay of bovine sperm blot with 20 µM peptide, densitometric scanning
[11] = target: endogenous RII isoforms of sperm (bands at about 55 kDa); assay: cell-based or functional assay

Sequence of PP-1 (P62136 whole entry): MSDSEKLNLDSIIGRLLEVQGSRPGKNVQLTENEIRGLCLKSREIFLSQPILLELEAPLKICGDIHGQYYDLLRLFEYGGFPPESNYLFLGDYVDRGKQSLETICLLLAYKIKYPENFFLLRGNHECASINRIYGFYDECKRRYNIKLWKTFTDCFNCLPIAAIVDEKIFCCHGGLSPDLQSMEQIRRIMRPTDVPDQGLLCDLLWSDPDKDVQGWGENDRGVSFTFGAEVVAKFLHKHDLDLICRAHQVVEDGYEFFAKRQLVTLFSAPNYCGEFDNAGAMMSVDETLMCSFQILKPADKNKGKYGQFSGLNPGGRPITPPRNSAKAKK
Sequence of PP-2A (P67775 whole entry, canonical isoform): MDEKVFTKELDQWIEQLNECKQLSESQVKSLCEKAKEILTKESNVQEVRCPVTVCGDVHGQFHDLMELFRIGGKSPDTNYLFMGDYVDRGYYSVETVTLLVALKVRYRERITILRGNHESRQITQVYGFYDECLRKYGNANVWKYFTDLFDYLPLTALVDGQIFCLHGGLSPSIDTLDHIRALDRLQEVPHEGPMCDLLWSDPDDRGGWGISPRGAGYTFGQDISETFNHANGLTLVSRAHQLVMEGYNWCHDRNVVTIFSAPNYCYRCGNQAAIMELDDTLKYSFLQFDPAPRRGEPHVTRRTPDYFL

Molecule: DLIEEAASRIVDAVIEQVKAAGAY (listed as Homo sapiens) [Ht31]
- Inhibition of RII binding to AKAP110 [1]: 100%

Molecule: Stearyl-YETLLIETASSLVKNAIQLSIE amide (Stearyl-YETLLIETASSLVKNAIQLSIE-NH2; listed as Homo sapiens) [s-AKAP79]
- Effect on motility of monkey-ejaculate sperm [2]: inhibited sperm motility in a concentration- and time-dependent manner

Molecule: Nc1nc(Cl)nc2c1ncn2[C@H]1C[C@H](O)[C@@H](CO)O1 [CDA, 2-chloro-2′-deoxyadenosine]
- Increase of basal PKA activity ([3]; 30 min at 37° C., both caudal and caput sperm): approximately 60%

Molecule: CCCCCCCCCCCCCCCCCC(=O)N[C@@H](CC(=O)O)C(=O)N[C@@H](CC(C)C)C(=O)N[C@H](C(=O)N[C@@H](CCC(=O)O)C(=O)N[C@@H](CCC(=O)O)C(=O)N[C@@H](C)C(=O)N[C@@H](C)C(=O)N[C@@H](CO)C(=O)N[C@@H](CCCNC(=N)N)C(=O)N[C@H](C(=O)N[C@H](C(=O)N[C@@H](CC(=O)O)C(=O)N[C@@H](C)C(=O)N[C@H](C(=O)N[C@H](C(=O)N[C@@H](CCC(=O)O)C(=O)N[C@@H](CCC(N)=O)C(=O)N[C@H](C(=O)N[C@@H](CCCCN)C(=O)N[C@@H](C)C(=O)N[C@@H](C)C(=O)NCC(=O)N[C@@H](C)C(=O)N[C@@H](Cc1ccc(O)cc1)C(=O)O)C(C)C)[C@@H](C)CC)C(C)C)C(C)C)[C@@H](C)CC)[C@@H](C)CC [s-Ht31]
- Effect on sperm viability / plasma membrane integrity (uptake of SYBR-green and rhodamine 123) [4]: did not decrease viability or disrupt the integrity of the sperm plasma membrane
- Release of BCECF or Fura 2 from loaded sperm [4]: did not compromise the integrity of the plasma membrane

Molecule: O=S(=O)(NCCNCC=Cc1ccc(Br)cc1)c1cccc2cnccc12 [H-89, N-[2-(p-bromocinnamylamino)ethyl]-5-isoquinoline-sulfonamide]
- Effect on sperm motility stimulated by CDA ([5]; 50 μM H-89 added 15 min prior to 50 μM CDA): no effect
- inhibition at 50 µM ([5]; Bos taurus, Sperm, 0.25 h, 50 μM, 15 min, FIG. 14, read-out: Inhibition of basal sperm motility): ≤ 50%
- Effect on PKA activity of treated sperm ([3]; in the presence or absence of CDA, sperm washed before lysis): strongly inhibited PKA activity

Molecule: C[C@@H]1CC[C@@]2(OC1)O[C@H]1[C@@H](O)[C@H]3[C@@H]4CC[C@H]5C[C@@H](O[C@@H]6O[C@H](CO)[C@H](O[C@@H]7O[C@H](CO)[C@@H](O)[C@H](O[C@@H]8OC[C@@H](O)[C@H](O)[C@H]8O)[C@H]7O[C@@H]7O[C@H](CO)[C@H](O)[C@H](O[C@@H]8O[C@H](CO)[C@@H](O)[C@H](O)[C@H]8O)[C@H]7O)[C@H](O)[C@H]6O)[C@H](O)C[C@]5(C)[C@H]4CC[C@]3(C)[C@H]1[C@@H]2C [digitonin]
- Release of BCECF or Fura 2 from loaded sperm [4]: caused release of these dyes

Molecule: TRDIYETDYYRK-amide (Stearyl-TRDIY(sulfo)ETDY(sulfo)Y(sulfo)RK-NH2; not fully specified; printed as TRDIYETDYYRK-amide; listed as Homo sapiens)
- Effect on activity of alkaline phosphatase [6]: did not have an effect
- Increase in insulin-stimulated receptor autophosphorylation [7]: 4.5 fold
- Effect on activity of PP-1 [8]: did not have an effect
- Effect on activity of PP-2A [9]: did not have an effect

Molecule: Stearyl-DLIEEAASRPVDAVPEQVKAAGAY amide (Stearyl-DLIEEAASRPVDAVPEQVKAAGAY-NH2; listed as Homo sapiens) [s-Ht31-P]
- Effect on sperm motility ([5]; concentrations up to 20 μM, 5 min): no effect

B1: s-Ht31: Stearyl-… amide (peptide)
peptide: Stearyl-DLIEEAASRIVDAVIEQVKAAGAY-NH2
modifications: not fully specified
- percent inhibition of RII binding to AKAP110 [10]: 85%
- concentration of s-Ht31 needed to produce 50% inhibition of bovine sperm motility, five minutes post-treatment [11]: 1 µM

B2: Ht31 (anchor inhibiting peptide, non-stearated) (peptide)
peptide: DLIEEAASRIVDAVIEQVKAAGAY
- percent inhibition of RII binding to AKAP110 [10]: 100%

B3: s-Ht31-P: Stearyl-… amide (peptide)
peptide: stearyl-DLIEEAASRPVDAVPEQVKAAGAY-NH2
- percent inhibition of RII binding to AKAP110 [10]: 0%
